Tests used:
[1] = test system: mice with DSS-induced colitis; experiment: Acute colitis induced by DSS in mice: body weight, stool, bleeding, DAI, colon length; type: in vivo, BALB/c OlaHsd mice
Description: (§1) BALB/c OlaHsd male mice aged 8-9 weeks and weighing 25-30 g were purchased from Harlan (Jerusalem, Israel) and housed in standard cages of up to 5 per cage in the pathogen free Animal Facility of the Institute for Drug Research. All experiments were performed in accordance with the Principles of Laboratory Animal Care (NIH publication #85-23, revised 1985) protocols MD-09-12197-4. Acute colitis was induced in mice by administration of 5% DSS solution (M.Wt.=[…], MP Biomedicals, LLC, Solon, Ohio, USA) in water for 8 days. The DSS solution was freshly prepared every day. Mice were provided with food and water or DSS solution ad libitum during the experiment. They were divided into groups of 10 as follows: Vehicle control group: mice drank water and were given water (1 ml/100 gm) once daily by gavage for 8 days; Drug control group: mice drank water and were given ladostigil (10 mg/kg) by gavage once daily for 8 days. DSS untreated group: mice drank 5% DSS for 7 days and water on the 8th day and were given water (1 ml/100 g) once daily by gavage for 8 days. Drug treated group: mice drank 5% DSS followed by water as above and were given ladostigil (5 or 10 mg/kg) by gavage once daily for 8 days. The volume of 5% DSS solution consumed was measured for each group of mice and the average volume/mouse was calculated. On the eighth day, the mice were anesthetized by CO2 and sacrificed by cervical dislocation 2 h after the last dose of ladostigil. Samples of colon and spleen were taken for measurement of cytokines MPO, cytokines and ChE activity.
Body weight, stool consistency and the presence of blood in the stools was recorded daily for each mouse. […] The score ranged between 0-4 for all three parameters and was composed as follows: Weight loss: none=0, 1-5%=1, 5-10%=2, 10-20%=3, >20%=4. Percent of weight loss on days 7 and 8 relative to the first day was calculated for all the groups. […] Bleeding: none=0, hemoccult=2, gross bleeding=4. The maximum DAI score was 4 based on a combination of scores of weight loss (relative to that on the first day of the experiment), stool consistency and bleeding, divided by 3. After sacrifice the length of the colon segment from the cecum to the rectum was measured.

[2] = test system: cholinesterase (AChE and BuChE); experiment: Cholinesterase activity in spleen and colon of mice drinking DSS (Ellman); type: in vivo; details: rivastigmine 1 mg/kg/day
Description: as §1
(§2) In experiments on the effect of chronic treatment with ladostigil on ChE activity in mice drinking DSS, the spleen was rapidly removed as described above, together with a colon segment of about 0.5 cm in length taken from the proximal area. Spleen and colon segments were washed in cold phosphate buffered saline (PBS) before they were frozen at −80° C. For assay, the tissue was unfrozen and weighed and PBS was added to each tissue at a ratio of 1 mg tissue to 1 ml. Tissues were homogenized at a speed of 24,000 rpm in cold phosphate buffer pH 7 containing 0.1% Triton and centrifuged at 14000 rpm. Aliquots of plasma and the supernatant from the spleen and colon were incubated with acetylthiocholine and dinitro benzoic acid in phosphate buffer pH 7 and the rate of development of the yellow color was measured as described by Ellman et al, (1961). Percent inhibition of ChE activity was calculated by comparison with that of control mice given water by gavage. Protein concentration was determined by means of by Pierce BCA Protein Assay Kit (Thermo Scientific, USA) according to the manufacturer's instructions. It is noted, that ChE activity in the colon and spleen of mice is attributed mainly to that of AChE while that in mouse plasma is mainly attributable to BuChE.

[3] = test system: LPS-induced TNF-α, IL-1β and IL-6 in spleen; experiment: Cytokines in spleen of mice injected with LPS, comparison to rivastigmine (Example 5); type: in vivo, Balb/c mice; details: for IL-1β in spleen / IL-6 in spleen / TNF-α in spleen: four hours
Description: Male Balb/c mice (aged 8-9 weeks, weighing 25-30 gm) were given ladostigil (10 or 20 mg/kg) or rivastigmine (0.5 or 1 mg/kg) by gavage, or water (1 ml/100 g), followed 15 min later by an intra-peritoneal injection of LPS (10 mg/kg). Control mice were given LPS and water by gavage (1 ml/100 g). For measurement of cytokine levels in the spleen and blood the mice were sacrificed 4 h after drug administration, blood collected in heparinized tubes and centrifuged to obtain plasma and the spleen was rapidly removed and weighed. Plasma and spleen were frozen in liquid nitrogen and stored at −80° C. until use. For measurement of cytokine levels, the tissue was diluted in PBS containing 0.8% NaCl, 0.144% NaHPO4, 0.024% KH2PO4 and protease inhibitor cocktail (Sigma Israel, P8340) and homogenized in an Ultra-TURRAX® homogenizer at a speed of 24,000 rpm, centrifuged at 14000 g for 15 min at 4° C. Cytokines were detected in the supernatant by using ELISA kits for cytokines IL-1β, IL-6, and TNF-α (Biolegend) following the manufacturer's protocol. Each experiment was performed twice with 8 replicate measures in each experiment. Protein concentration in each sample was determined with Bradford reagent (Bio-RAD, 500-0006).

ChE = experiment: Cholinesterase inhibition in plasma and spleen of LPS injected mice (Example 5); type: in vivo, Balb-C mice; details: for Inhibition of ChE, plasma / Inhibition of ChE, spleen: 60 min after oral administration, LPS injected mice
Description: as §2
For the LPS experiment involving a single administration, ladostigil (10 or 20 mg/kg) in a volume of 1 ml/100 g or water (1 ml/100 g) were given by gavage to groups of 6-8 Balb-C male mice weighing 24-30 g and LPS as described above. […] Blood was taken into heparinized tubes and centrifuged at 14000 rpm at room temperature for 4 min to provide plasma and the spleen was rapidly removed, weighed, frozen in liquid nitrogen and stored at −80° C. until assayed. It is noted, that ChE inhibition in mouse plasma is mainly attributed to BuChE activity, and in mouse spleen—mainly to AChE activity.
Percent inhibition of ChE activity was calculated by comparison with that of control mice given water by gavage as described in Example 1 above.

[4] = rivastigmine 0.5 mg/kg + LPS 10 mg/kg
[5] = rivastigmine 1 mg/kg + LPS 10 mg/kg

Structure (SMILES): CCN(C)C(=O)Oc1cccc([C@H](C)N(C)C)c1 [Rivastigmine, reference compound]
- Prevention of weight loss induced by DSS ([1]; 5% DSS, rivastigmine): did not prevent the weight loss
- Body weight decrease ([1]; mice given 1 mg/kg/day): 4.7%
- Inhibition of colonic ChE [2]: > 60%
- Effect on levels of the three cytokines in spleen ([3]; rivastigmine 0.5 mg/kg + LPS): had no effect on levels of any of the three cytokines
- IL-1β in spleen [3, 4]: 551 ± 31 pg/mg
- IL-6 in spleen [3, 4]: 569 ± 89 pg/mg
- TNF-α in spleen [3, 4]: 16.8 ± 2.5 pg/mg
- Effect on cytokine levels in spleen ([3]; rivastigmine 1 mg/kg + LPS): significantly reduced IL-1β and IL-6, but not of TNF-α
- IL-1β in spleen [3, 5]: 440 ± 40 pg/mg
- IL-6 in spleen [3, 5]: 462 ± 66 pg/mg
- TNF-α in spleen [3, 5]: 16.5 ± 2.2 pg/mg
- Inhibition of ChE, plasma (ChE; rivastigmine 0.5 mg/kg): 28 ± 4.5 %
- Inhibition of ChE, spleen (ChE; rivastigmine 0.5 mg/kg): 32.6 ± 5.6 %
- Inhibition of ChE in plasma and spleen, compared with rivastigmine 0.5 mg/kg (ChE; rivastigmine 1 mg/kg): about twice as much
- Inhibition of ChE, plasma (ChE; rivastigmine 1 mg/kg): 56.8 ± 6.1 %
- Inhibition of ChE, spleen (ChE; rivastigmine 1 mg/kg): 65.8 ± 3.2 %

Source: patent US9867798B2, “Ladostigil therapy for immunomodulation” (priority 2012, dated 2018)
